{"source": "patent US3962256A", "about": "“2-Aminomethyl benzimidazole derivatives” (Delalande S.A., priority 1973, dated 1976)", "key": {"[1]": {"system": "painful stretchings caused by the intraperitoneal injection of acetic acid", "assay": "Analgesic: reduction of painful stretchings caused by intraperitoneal acetic acid, oral, mouse", "format": "in vivo", "conditions": "100 mg/Kg/p.o.", "description": "The compounds of formula (I), administered by oral means to the mouse, are capable of reducing the number of painful stretchings caused by the intraperitoneal injection of acetic acid.\nBy way of example, the following Table III lists the results obtained by administration of 100 mg/Kg/p.o. of different compounds of formula (I)."}, "[2]": {"system": "gastric secretion measured after Shay ligature", "assay": "Gastric antisecretory: reduction of gastric secretion after Shay ligature, rat", "format": "in vivo", "conditions": "50 mg/Kg/i.d.", "description": "Administered by intraduodenal means to a rat, the compounds of formula (I) are capable of reducing the gastric secretion measured after Shay ligature.\nBy way of example, the following Table V gives the results obtained by administration of 50 mg/Kg/i.d. of different compounds of formula (I)."}, "[3]": {"assay": "Lethal doses / percentage mortality, oral", "format": "in vivo", "conditions": "for Percentage mortality: 2 000 mg/Kg/p.o., 2000 mg/kg", "from_the_text": "As a result of a comparison between the pharmacologically active doses mentioned above and the lethal doses listed in the following Table XII, the difference between said doses is sufficiently great to permit the utilisation of the compounds of formula (I) in therapeutics."}, "[4]": {"system": "rat suffering from high blood pressure", "assay": "Antihypertensive: return of systolic arterial pressure to normal in rats with high blood pressure", "format": "in vivo", "from_the_text": "The compounds of formula (I), administered by oral means to a rat suffering from high blood pressure, are capable of lowering the systolic arteriel pressure.\nBy way of example, there is provided in the following Table IV the results obtained by administration of different compounds of formula (I)."}, "[5]": {"system": "bronchoconstriction provoked in the guinea-pig by acetylcholine", "assay": "Antibronchoconstrictive and anticholinergic: bronchoconstriction by intravenous acetylcholine, Konzett method", "format": "in vivo", "from_the_text": "Injected by intraveinous or intraduodenal means, the compounds of formula (I) are capable of opposing the bronchoconstriction provoked in the guinea-pig by the itraveinous injection of acetylcholine by the Konzett method.\nBy way of example, the following Table VII lists the results obtained by the administration of different compounds of formula (I)"}, "[6]": {"system": "oedema caused by the sub-plantar injection of carraghenin", "assay": "Antiinflammatory: reduction of sub-plantar oedema caused by carraghenin, rat", "format": "in vivo", "conditions": "100 mg/Kg/p.o.", "description": "These properties are shown by a diminution of the local oedema caused by the sub-plantar injection of a phlogogenic agent, such as carraghenin, in the rat following the oral administration of compounds of formula (I).\nThe following Table VI lists, by way of example, the percentage reduction of the oedems caused by the sub-plantar injection of carraghenin, resulting from the administration of 100 mg/Kg/p.o. of different compounds of formula (I)."}, "[7]": {"system": "gastric ulcers, provoked in a rat by tying of the pylorus (Shay ulcers)", "assay": "Antiulcerous: reduction of Shay ulcers (tying of the pylorus)", "format": "in vivo", "conditions": "50 mg/Kg/i.d.", "description": "The compounds of formula (I) administered by intraduodenal means reduce the extent of gastric ulcers, provoked in a rat by tying of the pylorus (Shay ulcers).\nBy way of example, there is listed in the following Table IX, the results obtained by the administrations of 50 mg/Kg/i.d. of different compounds of formula (I)."}, "[8]": {"system": "explorations in the escape enclosure", "assay": "Sedative: reduction of number of explorations in the escape enclosure", "format": "in vivo", "conditions": "100 mg/Kg/p.o., mouse", "description": "The compounds of formula (I), administered by oral means to the mouse, reduce the number of explorations in the escape enclosure.\nBy way of example, the following Table VIII lists the results obtained by the administration of 100 mg/Kg/p.o. of different compounds of formula (I)."}, "[9]": {"system": "ventricular fibrillations provoked by the inhalation of chloroform", "assay": "Antiarythmic: protection against ventricular fibrillations provoked by inhalation of chloroform", "format": "in vivo", "conditions": "i.p., mouse", "from_the_text": "Administered by intraperitoneal means, the compounds of formula (I) are capable of protecting the mouse against the ventricular fibrillations provoked by the inhalation of chloroform."}, "[10]": {"system": "isolated duodenum of the rat", "assay": "Spasmolytic: opposing barium chloride contraction of isolated duodenum", "conditions": "papaverine as standard", "description": "The compounds of formula (I), introduced in the conserving medium are capable of opposing the contractural action of barium chloride on the isolated duodenum of the rat. This activity is evaluated by taking papaverine as standard."}, "[11]": {"system": "isolated heart of a guinea-pig", "assay": "Vasodilatatory: coronary flow of isolated heart", "conditions": "1 μg/ml in perfusion liquid", "description": "The compounds of formula (I) are capable of augmenting the flow of the coronary vessels of the isolated heart of a guinea-pig when said compounds are added in the perfusion liquid of said organ.\nBy way of example, there can be found in the following Table X, the percentage augmentation of the flow of the isolated heart of a guinea-pig by adding different compounds of formula (I) to the perfusion liquid, in a concentration of 1 μg/ml."}, "volume of urine emitted": {"system": "volume of urine emitted", "assay": "Diuretic: augmentation of urinary elimination", "format": "in vivo", "conditions": "25 mg/Kg/p.o., mouse, 6 hours", "description": "The compounds of formula (I), administered by oral means to the mouse, simultaneously with a volume of 1 ml. of an isotonic solution of sodium chloride per 25 g of the corporeal weight of the mouse, are capable of provoking an augmentation of the volume of urine emitted by reference to control animals, the volume being measured for 6 hours following administration.\nBy way of example, the following Table XI lists the results obtained by the administration of 25 mg/Kg/p.o. of different compounds of formula (I)."}, "[12]": {"system": "excursions into the escape enclosure", "assay": "Central nervous system stimulation: excursions in the escape test", "format": "in vivo", "conditions": "100 mg/Kg/p.o., mouse", "description": "The compounds of formula (I), administered by oral means to the mouse, provoke an augmentation of the number of excursions into the escape enclosure.\nThus, following the administration of 100 mg/Kg/p.o. of the compounds of Code Nos. 72 457 and 72 736, an augmentation of 30% in the number of excursions in the escape test, is observed."}}, "note": "Counter-ions that a name gives are not always drawn.", "data": [{"compound": "CCCCOc1ccc(C(=O)CCn2c(CN3CCOCC3)nc3ccccc32)cc1", "note": "[72 523]", "values": [{"measurement": "Percentage reduction of number of painful stretchings", "setting": "[1]", "result": 45, "unit": "%"}, {"measurement": "Percentage reductions in volume of gastric secretion", "setting": "[2]", "result": 25, "unit": "%"}, {"measurement": "Percentage mortality", "setting": "[3]", "result": 0, "unit": "%"}]}, {"compound": "COc1cc(C(=O)CCn2c(CN3CCOCC3)nc3ccccc32)cc(OC)c1OC.O=C(O)/C=C\\C(=O)O", "note": "[72 525]", "values": [{"measurement": "Percentage of rats with high blood pressure whose systolic arteriel pressure is returned to normal", "setting": "[4]; 200 mg/Kg/p.o.", "result": 50, "unit": "%"}, {"measurement": "Percentage inhibition of bronchoconstriction", "setting": "[5]; 100 mg/kg/i.d.", "result": 80, "unit": "%"}]}, {"compound": "O=C(CCn1c(CN2CCOCC2)nc2ccccc21)c1ccc(F)cc1.O=C(O)/C=C\\C(=O)O", "note": "[72 526]", "values": [{"measurement": "Percentage of rats with high blood pressure whose systolic arteriel pressure is returned to normal", "setting": "[4]; 100 mg/Kg/p.o.", "result": 75, "unit": "%"}, {"measurement": "Percentage reduction of sub-plantar oedema", "setting": "[6]", "result": 55, "unit": "%"}, {"measurement": "Percentage inhibition of bronchoconstriction", "setting": "[5]; 100 mg/kg/i.d.", "result": 75, "unit": "%"}, {"measurement": "Percentage reduction of Shay ulcers", "setting": "[7]", "result": 40, "unit": "%"}]}, {"compound": "COc1cc(C(=O)CCn2c(CN(C)C)nc3ccccc32)cc(OC)c1OC", "note": "[72 534]", "values": [{"measurement": "Percentage inhibition of bronchoconstriction", "setting": "[5]; 100 mg/kg/i.d.", "result": 50, "unit": "%"}, {"measurement": "Percentage mortality", "setting": "[3]", "result": 0, "unit": "%"}]}, {"compound": "Cc1ccc(C(=O)CCn2c(CN3CCCCC3)nc3ccccc32)c(C)c1", "note": "[72 540]", "values": [{"measurement": "Percentage inhibition of bronchoconstriction", "setting": "[5]; 100 mg/kg/i.d.", "result": 50, "unit": "%"}, {"measurement": "Percentage reduction of number of explorations in the escape enclosure", "setting": "[8]", "result": 30, "unit": "%"}, {"measurement": "Percentage mortality", "setting": "[3]", "result": 0, "unit": "%"}]}, {"compound": "CCN(CC)Cc1nc2ccccc2n1CCC(=O)c1ccc(F)cc1.O=C(O)/C=C\\C(=O)O", "note": "[72 568]", "values": [{"measurement": "Percentage of rats with high blood pressure whose systolic arteriel pressure is returned to normal", "setting": "[4]; 200 mg/Kg/p.o.", "result": 50, "unit": "%"}, {"measurement": "DE 50", "setting": "[9]", "result": 200, "unit": "mg/Kg/i.p."}]}, {"compound": "CCN(CC)Cc1nc2ccccc2n1CCC(=O)c1ccccc1", "note": "[72 573, 1-(2'-benzoylethyl maleate)-2-diethylaminomethyl benzimidazole]", "values": [{"measurement": "Percentage inhibition of bronchoconstriction", "setting": "[5]; 5 mg/kg/i.v.", "result": 100, "unit": "%"}, {"measurement": "spasmolytic activity relative to papaverine", "setting": "[10]", "result": "equivalent spasmolytic actvity to that of papaverine"}, {"measurement": "mortality", "setting": "[3]; in vivo, po, 1 250 mg/Kg/p.o.", "result": "~50", "unit": "%"}]}, {"compound": "CCN(CC)Cc1nc2ccccc2n1CCC(=O)c1ccc(C)cc1.O=C(O)/C=C\\C(=O)O", "note": "[72 574]", "values": [{"measurement": "Percentage reduction of number of painful stretchings", "setting": "[1]", "result": 45, "unit": "%"}, {"measurement": "Percentage reduction of Shay ulcers", "setting": "[7]", "result": 45, "unit": "%"}]}, {"compound": "COc1ccc(C(=O)CCn2c(CN3CCCC3)nc3ccccc32)cc1OC", "note": "[72 617]", "values": [{"measurement": "Percentage reduction of number of painful stretchings", "setting": "[1]", "result": 70, "unit": "%"}]}, {"compound": "CN(C)Cc1nc2ccccc2n1CCC(=O)c1ccc(F)cc1.O=C(O)/C=C\\C(=O)O", "note": "[72 663]", "values": [{"measurement": "Percentage reduction of number of painful stretchings", "setting": "[1]", "result": 60, "unit": "%"}, {"measurement": "Percentage reduction of number of explorations in the escape enclosure", "setting": "[8]", "result": 30, "unit": "%"}]}, {"compound": "CCN(CC)Cc1nc2ccccc2n1CCC(=O)c1ccc(OC)c(OC)c1.O=C(O)/C=C\\C(=O)O", "note": "[72 692]", "values": [{"measurement": "Percentage reduction of number of explorations in the escape enclosure", "setting": "[8]", "result": 30, "unit": "%"}, {"measurement": "Percentage augmentations of flow of isolated heart of a guinea-pig", "setting": "[11]", "result": 60, "unit": "%"}, {"measurement": "Percentage augmentation of urinary elimination", "setting": "volume of urine emitted", "result": 70, "unit": "%"}]}, {"compound": "O=C(CCn1c(CN2CCCC2)nc2ccccc21)c1ccc(F)cc1", "note": "[72 708]", "values": [{"measurement": "Percentage reduction of number of painful stretchings", "setting": "[1]", "result": 60, "unit": "%"}, {"measurement": "Percentage inhibition of bronchoconstriction", "setting": "[5]; 100 mg/kg/i.d.", "result": 90, "unit": "%"}, {"measurement": "spasmolytic activity relative to papaverine", "setting": "[10]", "result": "equivalent spasmolytic actvity to that of papaverine"}, {"measurement": "Percentage reduction of Shay ulcers", "setting": "[7]", "result": 30, "unit": "%"}]}, {"compound": "Cc1ccc(C(=O)CCn2c(CN(C)C)nc3ccccc32)c(C)c1", "note": "[72 712]", "values": [{"measurement": "Percentage reduction of sub-plantar oedema", "setting": "[6]", "result": 70, "unit": "%"}, {"measurement": "Percentage reduction of number of explorations in the escape enclosure", "setting": "[8]", "result": 40, "unit": "%"}, {"measurement": "Percentage reduction of Shay ulcers", "setting": "[7]", "result": 55, "unit": "%"}, {"measurement": "Percentage mortality", "setting": "[3]", "result": 0, "unit": "%"}]}, {"compound": "CCCCOc1ccc(C(=O)CCn2c(CN(CC)CC)nc3ccccc32)cc1", "note": "[72 727]", "values": [{"measurement": "Percentage inhibition of bronchoconstriction", "setting": "[5]; 100 mg/kg/i.d.", "result": 100, "unit": "%"}]}, {"compound": "CCN(CC)Cc1nc2ccccc2n1CCC(=O)c1ccc(C)cc1C.O=C(O)/C=C\\C(=O)O", "note": "[72 736]", "values": [{"measurement": "Percentage inhibition of bronchoconstriction", "setting": "[5]; 10 mg/kg/i.v.", "result": 90, "unit": "%"}, {"measurement": "spasmolytic activity relative to papaverine", "setting": "[10]", "result": "equivalent spasmolytic actvity to that of papaverine"}, {"measurement": "Percentage reduction of Shay ulcers", "setting": "[7]", "result": 30, "unit": "%"}, {"measurement": "augmentation in the number of excursions in the escape test", "setting": "[12]", "result": 30, "unit": "%"}]}]}
